Measurements reported in the NIST ThermoML archive (doi:10.1016/j.jct.2005.05.003).

Experiment: mn = molality of the nth substance listed, in mol/kg
Conditions: Liquid, Vibrating tube method

[Ca+2].[Cl-].[Cl-] [calcium chloride] + CO
Conditions | mass density [kg/m3]
298.27 K, 184 kPa, m1 = 2.393 | 977.23
298.27 K, 5004 kPa, m1 = 2.393 | 980.74
298.27 K, 9983 kPa, m1 = 2.393 | 984.25
298.27 K, 14989 kPa, m1 = 2.393 | 987.66
298.27 K, 19998 kPa, m1 = 2.393 | 990.95
298.27 K, 25001 kPa, m1 = 2.393 | 994.14
298.27 K, 30011 kPa, m1 = 2.393 | 997.26
298.27 K, 34980 kPa, m1 = 2.393 | 1000.22
298.27 K, 39985 kPa, m1 = 2.393 | 1003.15
298.28 K, 175 kPa, m1 = 0.2853 | 814.28
298.28 K, 179 kPa, m1 = 0.6588 | 848.89
298.28 K, 202 kPa, m1 = 0.1082 | 797.82
298.28 K, 4988 kPa, m1 = 0.6588 | 853.15
298.28 K, 5000 kPa, m1 = 0.2853 | 818.77
298.28 K, 5011 kPa, m1 = 0.1082 | 802.48
298.28 K, 9997 kPa, m1 = 0.6588 | 857.39
298.28 K, 10009 kPa, m1 = 0.2853 | 823.22
298.28 K, 10011 kPa, m1 = 0.1082 | 807.08
298.28 K, 14985 kPa, m1 = 0.2853 | 827.41
298.28 K, 15002 kPa, m1 = 0.1082 | 811.44
298.28 K, 15012 kPa, m1 = 0.6588 | 861.47
298.28 K, 19991 kPa, m1 = 0.1082 | 815.57
298.28 K, 20010 kPa, m1 = 0.6588 | 865.31
298.28 K, 20018 kPa, m1 = 0.2853 | 831.46
298.28 K, 24989 kPa, m1 = 0.2853 | 835.29
298.28 K, 24991 kPa, m1 = 0.6588 | 868.99
298.28 K, 24997 kPa, m1 = 0.1082 | 819.63
298.28 K, 29982 kPa, m1 = 0.2853 | 838.98
298.28 K, 29989 kPa, m1 = 0.1082 | 823.45
298.28 K, 29991 kPa, m1 = 0.6588 | 872.56
298.28 K, 34983 kPa, m1 = 0.6588 | 875.99
298.28 K, 34994 kPa, m1 = 0.2853 | 842.53
298.28 K, 35017 kPa, m1 = 0.1082 | 827.11
298.28 K, 39984 kPa, m1 = 0.6588 | 879.31
298.28 K, 39998 kPa, m1 = 0.1082 | 830.67
298.28 K, 40005 kPa, m1 = 0.2853 | 845.94
323.22 K, 232 kPa, m1 = 0.6588 | 824.35
323.22 K, 237 kPa, m1 = 2.393 | 952.79
323.22 K, 245 kPa, m1 = 0.1082 | 773.87
323.22 K, 4998 kPa, m1 = 0.6588 | 829.19
323.22 K, 5003 kPa, m1 = 2.393 | 956.69
323.22 K, 5013 kPa, m1 = 0.1082 | 779.2
323.22 K, 9984 kPa, m1 = 0.1082 | 784.43
323.22 K, 9988 kPa, m1 = 2.393 | 960.6
323.22 K, 10013 kPa, m1 = 0.6588 | 834.04
323.22 K, 14985 kPa, m1 = 2.393 | 964.38
323.22 K, 14994 kPa, m1 = 0.1082 | 789.4
323.22 K, 15000 kPa, m1 = 0.6588 | 838.59
323.22 K, 19991 kPa, m1 = 0.1082 | 794.09
323.22 K, 20010 kPa, m1 = 0.6588 | 842.96
323.22 K, 20014 kPa, m1 = 2.393 | 968.03
323.22 K, 24988 kPa, m1 = 0.6588 | 847.08
323.22 K, 24989 kPa, m1 = 0.1082 | 798.56
323.22 K, 25005 kPa, m1 = 2.393 | 971.52
323.22 K, 29988 kPa, m1 = 0.1082 | 802.81
323.22 K, 29988 kPa, m1 = 2.393 | 974.89
323.22 K, 30009 kPa, m1 = 0.6588 | 851.08
323.22 K, 34980 kPa, m1 = 2.393 | 978.17
323.22 K, 34991 kPa, m1 = 0.1082 | 806.89
323.22 K, 35005 kPa, m1 = 0.6588 | 854.89
323.22 K, 39995 kPa, m1 = 0.1082 | 810.79
323.22 K, 39995 kPa, m1 = 0.6588 | 858.56
323.22 K, 40017 kPa, m1 = 2.393 | 981.39
323.23 K, 226 kPa, m1 = 0.2853 | 790.12
323.23 K, 5015 kPa, m1 = 0.2853 | 795.26
323.23 K, 9993 kPa, m1 = 0.2853 | 800.3
323.23 K, 14993 kPa, m1 = 0.2853 | 805.07
323.23 K, 20003 kPa, m1 = 0.2853 | 809.62
323.23 K, 25013 kPa, m1 = 0.2853 | 813.96
323.23 K, 30015 kPa, m1 = 0.2853 | 818.08
323.23 K, 34988 kPa, m1 = 0.2853 | 821.99
323.23 K, 40005 kPa, m1 = 0.2853 | 825.78
348.23 K, 303 kPa, m1 = 2.393 | 928.79
348.23 K, 4983 kPa, m1 = 2.393 | 933.12
348.23 K, 9990 kPa, m1 = 2.393 | 937.54
348.23 K, 15005 kPa, m1 = 2.393 | 941.76
348.23 K, 20000 kPa, m1 = 2.393 | 945.79
348.23 K, 24993 kPa, m1 = 2.393 | 949.65
348.23 K, 29995 kPa, m1 = 2.393 | 953.38
348.23 K, 35000 kPa, m1 = 2.393 | 956.97
348.23 K, 39984 kPa, m1 = 2.393 | 960.44
348.24 K, 308 kPa, m1 = 0.1082 | 748.93
348.24 K, 321 kPa, m1 = 0.6588 | 799.27
348.24 K, 326 kPa, m1 = 0.2853 | 765.1
348.24 K, 4986 kPa, m1 = 0.6588 | 804.77
348.24 K, 5001 kPa, m1 = 0.2853 | 770.94
348.24 K, 5010 kPa, m1 = 0.1082 | 755.08
348.24 K, 9985 kPa, m1 = 0.1082 | 761.11
348.24 K, 9995 kPa, m1 = 0.6588 | 810.3
348.24 K, 9998 kPa, m1 = 0.2853 | 776.76
